We go through 18 compounds from patent US9169254B2, “Spiroimidazolone derivative” (Chugai Seiyaku Kabushiki Kaisha, priority 2009, dated 2015).

The target of this assay is T1, human PTH1 receptor (Homo sapiens, UniProt Q03431).
T1 sequence (Q03431 27-593): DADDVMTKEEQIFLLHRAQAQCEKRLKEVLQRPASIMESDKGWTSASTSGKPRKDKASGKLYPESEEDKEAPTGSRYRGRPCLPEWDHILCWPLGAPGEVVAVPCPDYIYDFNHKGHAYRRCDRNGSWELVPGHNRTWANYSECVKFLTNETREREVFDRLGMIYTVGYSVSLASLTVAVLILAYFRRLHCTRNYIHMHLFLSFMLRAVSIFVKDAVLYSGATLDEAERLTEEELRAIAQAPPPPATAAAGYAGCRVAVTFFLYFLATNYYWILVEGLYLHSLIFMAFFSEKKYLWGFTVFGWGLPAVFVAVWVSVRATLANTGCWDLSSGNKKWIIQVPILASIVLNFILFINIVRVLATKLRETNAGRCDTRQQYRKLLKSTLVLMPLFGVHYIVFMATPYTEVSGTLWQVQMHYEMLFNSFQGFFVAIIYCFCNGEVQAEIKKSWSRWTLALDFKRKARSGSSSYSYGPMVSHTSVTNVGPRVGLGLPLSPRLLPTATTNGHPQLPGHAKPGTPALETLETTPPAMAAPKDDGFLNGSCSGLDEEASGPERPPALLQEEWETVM
Briefly: In vitro cAMP signal activity in HKRK-B7 cells (LLC-PK1 cells overexpressing the human PTH1 receptor). It counts as cell-based. As to conditions: HKRK-B7 cells; compound at 1×10^−3 M; cAMP produced as percentage of that produced by hPTH(1-34) at 100 nM.

As for `COCCN(C(C)=O)c1cc(C)c(CCS(=O)(=O)N2CCC3(CC2)N=C(C2CCC(CCC(F)(F)F)CC2)NC3=O)c(C)c1` (stereo not drawn) [Compound 756, N-[3,5-dimethyl-4-(2-{4-oxo-2-[4-(3,3,3-trifluoro-propyl)-cyclohexyl]-1,3,8-triaza-spiro[4.5]dec-1-ene-8-sulfonyl}-ethyl)-phenyl]-N-(2-methoxy-ethyl)-acetamide], the “cAMP production activity (%)” value amounted to 79%. As for `CC(=O)Nc1cccc(C)c1CCS(=O)(=O)N1CCC2(CC1)N=C(C1CCCCC1)NC2=O` [Compound 276, N-{2-[2-(2-cyclohexyl-4-oxo-1,3,8-triaza-spiro[4.5]dec-1-ene-8-sulfonyl)-ethyl]-3-methyl-phenyl}-acetamide], the figure is 63%; as for `CC(=O)Nc1ccc(CCS(=O)(=O)N2CCC3(CC2)N=C(c2cccc(Cl)c2Cl)NC3=O)c(C)c1` [Compound 147, N-(4-{2-[2-(2,3-dichloro-phenyl)-4-oxo-1,3,8-triaza-spiro[4.5]dec-1-ene-8-sulfonyl]-ethyl}-3-methyl-phenyl)-acetamide], 105%; as for `CC(=O)Nc1ccc(CCS(=O)(=O)N2CCC3(CC2)N=C(c2cccc(C#N)c2)NC3=O)c(C)c1` [Compound 907, N-(4-{2-[2-(3-cyano-phenyl)-4-oxo-1,3,8-triaza-spiro[4.5]dec-1-ene-8-sulfonyl]-ethyl}-3-methyl-phenyl)-acetamide], 85%.

As to `CC(=O)Nc1ccc(CCS(=O)(=O)N2CCC3(CC2)N=C(C2CCC(C(C)(C)F)CC2)NC3=O)c(C)c1` (stereo not drawn) [Compound 1078, N-[4-(2-{2-[4-(1-Fluoro-1-methyl-ethyl)-cyclohexyl]-4-oxo-1,3,8-triaza-spiro[4.5]dec-1-ene-8-sulfonyl}-ethyl)-3-methyl-phenyl]-acetamide], the “cAMP production activity (%)” value was 74%. With `COc1ccc(C2=NC3(CCN(S(=O)(=O)/C=C/c4c(C)cc(C(=O)N5CCC(C)(O)CC5)cc4C)CC3)C(=O)N2)cc1C` [Compound 1238, 8-{(E)-2-[4-(4-hydroxy-4-methyl-piperidine-1-carbonyl)-2,6-dimethyl-phenyl]-ethenesulfonyl}-2-(4-methoxy-3-methyl-phenyl)-1,3,8-triaza-spiro[4.5]dec-1-en-4-one], the “cAMP production activity (%)” value stood at 73%.

In the case of `Cc1cc(C(=O)N2CCC(O)(CF)CC2)cc(C)c1/C=C/S(=O)(=O)N1CCC2(CC1)N=C(c1ccc3c(c1)OC(F)(F)O3)NC2=O` [Compound 1280, 2-(2,2-difluoro-benzo[1,3]dioxol-5-yl)-8-{(E)-2-[4-(4-fluoromethyl-4-hydroxy-piperidine-1-carbonyl)-2,6-dimethyl-phenyl]-ethenesulfonyl}-1,3,8-triaza-spiro[4.5]dec-1-en-4-one], the “cAMP production activity (%)” value came out at 74%. For `Cc1cc(S(=O)(=O)NC[C@@H](O)CO)ccc1CCS(=O)(=O)N1CCC2(CC1)N=C(c1cccc(OC(F)(F)F)c1)NC2=O` [Compound 851, N—((R)-2,3-dihydroxy-propyl)-3-methyl-4-{2-[4-oxo-2-(3-trifluoromethoxy-phenyl)-1,3,8-triaza-spiro[4.5]dec-1-ene-8-sulfonyl]-ethyl}-benzenesulfonamide], the “cAMP production activity (%)” value is 83%. Consider `Cc1cc(C(=O)N2CCOC2=O)cc(C)c1CCS(=O)(=O)N1CCC2(CC1)N=C(C1CCCCC1)NC2=O` [Compound 1179, 2-Cyclohexyl-8-{2-[2,6-dimethyl-4-(2-oxo-oxazolidine-3-carbonyl)-phenyl]-ethanesulfonyl}-1,3,8-triaza-spiro[4.5]dec-1-en-4-one], for which the “cAMP production activity (%)” value turned out to be 65%. As for `Cc1cc(N(C)C(N)=O)cc(C)c1CCS(=O)(=O)N1CCC2(CC1)N=C(c1ccc(C(C)(C)C)cc1)NC2=O` [Compound 1030, 1-(4-{2-[2-(4-tert-butyl-phenyl)-4-oxo-1,3,8-triaza-spiro[4.5]dec-1-ene-8-sulfonyl]-ethyl}-3,5-dimethyl-phenyl)-1-methyl-urea], the figure is 115%; as for `Cc1cc(NC[C@H](O)CO)ccc1CCS(=O)(=O)N1CCC2(CC1)N=C(c1ccc(OC(F)(F)F)cc1)NC2=O` [Compound 156, 8-{2-[4-((S)-2,3-Dihydroxy-propylamino)-2-methyl-phenyl]-ethanesulfonyl}-2-(4-trifluoromethoxy-phenyl)-1,3,8-triaza-spiro[4.5]dec-1-en-4-one], 64%. As for `Cc1cc(C(=O)N2CCC(O)(CF)CC2)cc(C)c1/C=C/S(=O)(=O)N1CCC2(CC1)N=C(c1ccc(F)c(OCCCF)c1)NC2=O` [Compound 1264, 2-[4-fluoro-3-(3-fluoro-propoxy)-phenyl]-8-{(E)-2-[4-(4-fluoromethyl-4-hydroxy-piperidine-1-carbonyl)-2,6-dimethyl-phenyl]-ethenesulfonyl}-1,3,8-triaza-spiro[4.5]dec-1-en-4-one], the figure is 77%. In the case of `Cc1cc(C(=O)N2CCCO2)cc(C)c1/C=C/S(=O)(=O)N1CCC2(CC1)N=C(C1CCC(CCC(F)(F)F)CC1)NC2=O` (stereo not drawn) [Compound 992, 8-{(E)-2-[4-(isoxazolidine-2-carbonyl)-2,6-dimethyl-phenyl]-ethenesulfonyl}-2-[4-(3,3,3-trifluoro-propyl)-cyclohexyl]-1,3,8-triaza-spiro[4.5]dec-1-en-4-one], the “cAMP production activity (%)” value came out at 65%.

In the case of `Cc1cc(CN2C(=O)CNC2=O)cc(C)c1/C=C/S(=O)(=O)N1CCC2(CC1)N=C(C1CCC(CCC(F)(F)F)CC1)NC2=O` (stereo not drawn) [Compound 554, 3-[3,5-dimethyl-4-((E)-2-{4-oxo-2-[4-(3,3,3-trifluoro-propyl)-cyclohexyl]-1,3,8-triaza-spiro[4.5]dec-1-ene-8-sulfonyl}-vinyl)-benzyl]-imidazolidine-2,4-dione], the “cAMP production activity (%)” value is given as 82%. As for `Cc1cc(N(C)C(N)=O)cc(C)c1/C=C/[S@TB3](=O)(=O)N1CCC2(CC1)N=C(CCCCCCC/C=C/c1ccccc1)NC2=O` [Compound 1121, 1-(3,5-dimethyl-4-{(E)-2-[4-oxo-2-((E)-9-phenyl-non-8-enyl)-1,3,8-triaza-spiro[4.5]dec-1-ene-8-sulfonyl]-vinyl}-phenyl)-1-methyl-urea], the figure is 118%; as for `Cc1cc(C(=O)N2CCC(O)(CF)CC2)cc(C)c1/C=C/S(=O)(=O)N1CCC2(CC1)N=C(c1ccc(C(F)(F)F)c(Cl)c1)NC2=O` [Compound 1241, 2-(3-chloro-4-trifluoromethyl-phenyl)-8-{(E)-2-[4-(4-fluoromethyl-4-hydroxy-piperidine-1-carbonyl)-2,6-dimethyl-phenyl]-ethenesulfonyl}-1,3,8-triaza-spiro[4.5]dec-1-en-4-one], 101%; as for `Cc1cc(CN2CCCC2=O)cc(C)c1CCS(=O)(=O)N1CCC2(CC1)N=C(C1CCC(C)CC1)NC2=O` (stereo not drawn) [Compound 781, 8-{2-[2,6-dimethyl-4-(2-oxo-pyrrolidin-1-ylmethyl)-phenyl]-ethanesulfonyl}-2-(4-methyl-cyclohexyl)-1,3,8-triaza-spiro[4.5]dec-1-en-4-one], 30%.

In the case of `Cc1cc(C(=O)N(C)C)ccc1CCS(=O)(=O)N1CCC2(CC1)N=C(CCc1ccccc1)NC2=O` [Compound 101, 3,N,N-trimethyl-4-[2-(4-oxo-2-phenethyl-1,3,8-triaza-spiro[4.5]dec-1-ene-8-sulfonyl)-ethyl]-benzamide], the “cAMP production activity (%)” value was 49%.
